Measured values: patent US9975878B2, “Substituted triazine BMI-1 inhibitors” (PTC Therapeutics, Inc., priority 2013, dated 2018)

System: Bmi-1 protein
Assay: Sandwich ELISA Assay: Bmi-1 protein level in HT-1080 cells treated with test compounds
Assay type: cell-based
Procedure: Cell Seeding and Compound Treatment (Day 1):
HT-1080 cells were seeded at 8000 cells/well (50 μL) in 96-well tissue culture plates. After the cells became adherent (3-4 hours), 2× diluted stocks of test compounds in 50 μL DMEM containing 1% DMSO (final DMSO concentration was 0.5%) were added and the plates were incubated at 37° C. under 5% CO2 for 40-48 hours.
ELISA Plate First Antibody Preparation (Day 2):
The First Antibody (Millipore Mouse, monoclonal to mouse Bmi-1, clone F6, catalog #05-637) diluted to 2 μg/mL in PBS was added (100 μL) to each well of a Nunc MaxiSorp 96-well ELISA plate. The plate was covered with a plate seal and allowed to stand overnight.
Cell Lysate Preparation (Day 3):
Fresh Lysis buffer (1×) was prepared on the day of the assay as follows: 1 mM EDTA, 150 mM NaCl, 0.5% Triton-X 100, 10 mM NaF, 20 mM B-Glycerophosphate, 1 mM DTT (in PBS, pH 7.2-7.4) and HALT protease inhibitor cocktail (1×) (Pierce #78410).
Lysis Buffer (1×, 40 μL) was added to each well and the plate was shaken for 5-10 minutes on an orbital shaker to allow cell lysis, then diluent (1% BSA in PBS in 0.5% NP40) (100 μL) was added to each well.
A standard curve was prepared at the following Bmi-1 concentrations: 8000, 4000, 2000, 1000, 500, 250, 125 and 0 pg/mL. The Bmi-1 Recombinant Protein Standard (Novus Biologicals PCGF4 Recombinant Protein (P01), catalog # H00000648-P01) used to prepare the standard curve was stored at −80° C. On first thaw, the Recombinant Protein Standard was diluted to 10 μg/μL in Blocking Buffer (1% BSA in PBS; BSA: Fisher Scientific Catalog #1600-100). Aliquots were taken and refrozen at −80° C. The aliquots may be kept at 4° C. and reused after first thaw, but only within 1-2 weeks. The Recombinant Protein Standard contains a GST-fusion tag that appears at approximately 70 Kda on Western Blot.
The prepared ELISA plate was washed 3× with Wash Buffer (0.05% Tween-20 in PBS). The final wash was removed from the plate and the plate was blotted dry. Blocking Buffer (300 μL) (1% BSA in PBS) was added to each well. The plate was covered with a plate seal and incubated at room temperature for 1 hour. The blocked plate was washed 3× with Wash Buffer, then the final wash was removed and the plate was blotted dry. The previously prepared samples and standards were added (100 μL/well) and the plate was covered with a plate seal and incubated at 4° C. overnight.
The prepared ELISA plate was removed from incubation and allowed to stand at room temperature for 30 minutes, then washed and blotted dry. The Second Antibody (Cell Signaling Rabbit anti-Bmi-1, Cat# 2830) diluted to 1:600 in Blocking Buffer was added (100 μL) to each well, except as needed for background control wells. The plate was covered with a plate seal and incubated for 1.5 hrs at room temperature.
The ELISA plate was washed and blotted dry as previously described. The Third Antibody (Cell Signaling HRP conjugated anti-rabbit IgG (CellSignaling, Cat#:7074) diluted to 1:300 in Blocking Buffer was added (100 μL) to each well, except as needed for background control wells. The plate was incubated for 1 hr at room temperature.
The plate was washed and blotted dry, then a previously prepared TMB substrate (TMB substrate kit, Pierce catalog #34021) (prepared by mixing kit reagents 1:1) (100 μL) was added per well. The plate was incubated for 20-30 minutes at room temperature in the dark, then Stop Solution (2 M sulfuric acid in water) (50 μL) was added per well. The plates were read at OD450 (experimental) and OD570 (reference).

EC50	SMILES
10 to 100 nM	CCc1nc2ccccc2n1-c1nc(N)nc(Nc2ccc(OC(F)F)cc2)n1 [Cpd 31, N-[4-(difluoromethoxy)phenyl]-6-(2-ethyl-1H-benzimidazol-1-yl)-1,3,5-triazine-2,4-diamine]
10 to 100 nM	Cc1nc2ncc(Br)cc2n1-c1nc(N)nc(Nc2ccc(C(F)(F)F)cc2)n1 [Cpd 32, 6-(6-bromo-2-methyl-1H-imidazo[4,5-b]pyridin-1-yl)-N-[4-(trifluoromethyl)phenyl]-1,3,5-triazine-2,4-diamine]
10 to 100 nM	Cc1nc2ncc(Cl)cc2n1-c1nc(N)nc(Nc2ccc(C(F)(F)F)cc2)n1 [Cpd 33, 6-(6-chloro-2-methyl-1H-imidazo[4,5-b]pyridin-1-yl)-N-[4-(trifluoromethyl)phenyl]-1,3,5-triazine-2,4-diamine]
100 to 3000 nM	Cc1nc2ncc(Br)cc2n1-c1nc(NCCO)nc(Nc2ccc(C(F)(F)F)cc2)n1 [Cpd 34, 2-{[4-(6-bromo-2-methyl-1H-imidazo[4,5-b]pyridin-1-yl)-6-{[4-(trifluoromethyl)phenyl]amino}-1,3,5-triazin-2-yl]amino}ethanol]
100 to 3000 nM	Cc1nc2ncc(Cl)cc2n1-c1nc(NCCO)nc(Nc2ccc(C(F)(F)F)cc2)n1 [Cpd 35, 2-{[4-(6-chloro-2-methyl-1H-imidazo[4,5-b]pyridin-1-yl)-6-{[4-(trifluoromethyl)phenyl]amino}-1,3,5-triazin-2-yl]amino}ethanol]
100 to 3000 nM	Nc1nc(Nc2ccc(C(F)(F)F)cc2)nc(-n2c(C3CC3)nc3ncc(F)cc32)n1 [Cpd 36, 6-(2-cyclopropyl-6-fluoro-1H-imidazo[4,5-b]pyridin-1-yl)-N-[4-(trifluoromethyl)phenyl]-1,3,5-triazine-2,4-diamine]
10 to 100 nM	CCc1nc2ccccc2n1-c1nc(N)nc(Nc2ccc(OC(F)F)c(F)c2)n1 [Cpd 37, N-[4-(difluoromethoxy)-3-fluorophenyl]-6-(2-ethyl-1H-benzimidazol-1-yl)-1,3,5-triazine-2,4-diamine]
10 to 100 nM	Cc1nc2ncc(Br)cc2n1-c1nc(N)nc(Nc2ccc(OC(F)F)cc2)n1 [Cpd 38, 6-(6-bromo-2-methyl-1H-imidazo[4,5-b]pyridin-1-yl)-N-[4-(difluoromethoxy)phenyl]-1,3,5-triazine-2,4-diamine]
10 to 100 nM	Cc1nc2ncc(Br)cc2n1-c1nc(N)nc(Nc2ccc(OC(F)F)c(F)c2)n1 [Cpd 39, 6-(6-bromo-2-methyl-1H-imidazo[4,5-b]pyridin-1-yl)-N-[4-(difluoromethoxy)-3-fluorophenyl]-1,3,5-triazine-2,4-diamine]
10 to 100 nM	Cc1nc2ncc(Cl)cc2n1-c1nc(N)nc(Nc2ccc(OC(F)F)cc2)n1 [Cpd 40, 6-(6-chloro-2-methyl-1H-imidazo[4,5-b]pyridin-1-yl)-N-[4-(difluoromethoxy)phenyl]-1,3,5-triazine-2,4-diamine]
10 to 100 nM	Cc1nc2ncc(Cl)cc2n1-c1nc(N)nc(Nc2ccc(OC(F)F)c(F)c2)n1 [Cpd 41, 6-(6-chloro-2-methyl-1H-imidazo[4,5-b]pyridin-1-yl)-N-[4-(difluoromethoxy)-3-fluorophenyl]-1,3,5-triazine-2,4-diamine]
10 to 100 nM	Nc1nc(Nc2ccc(C(F)(F)F)cc2)nc(-n2c(C3CC3)nc3ccccc32)n1 [Cpd 42, 6-(2-cyclopropyl-1H-benzimidazol-1-yl)-N-[4-(trifluoromethyl)phenyl]-1,3,5-triazine-2,4-diamine]
10 to 100 nM	Nc1nc(Nc2ccc(OC(F)F)cc2)nc(-n2c(C3CC3)nc3ccccc32)n1 [Cpd 43, 6-(2-cyclopropyl-1H-benzimidazol-1-yl)-N-[4-(difluoromethoxy)phenyl]-1,3,5-triazine-2,4-diamine]
10 to 100 nM	Nc1nc(Nc2ccc(OC(F)F)c(F)c2)nc(-n2c(C3CC3)nc3ccccc32)n1 [Cpd 44, 6-(2-cyclopropyl-1H-benzimidazol-1-yl)-N-[4-(difluoromethoxy)-3-fluorophenyl]-1,3,5-triazine-2,4-diamine]
10 to 100 nM	CCc1nc2c(F)cc(F)cc2n1-c1nc(N)nc(Nc2ccc(C(F)(F)F)cc2)n1 [Cpd 45, 6-(2-ethyl-4,6-difluoro-1H-benzimidazol-1-yl)-N-[4-(trifluoromethyl)phenyl]-1,3,5-triazine-2,4-diamine]
100 to 3000 nM	Cc1nc2c(F)cc(F)cc2n1-c1nc(N)nc(Nc2ccc(C(F)(F)F)cc2)n1 [Cpd 46, 6-(4,6-difluoro-2-methyl-1H-benzimidazol-1-yl)-N-[4-(trifluoromethyl)phenyl]-1,3,5-triazine-2,4-diamine]
10 to 100 nM	Cc1nc2c(F)cc(F)cc2n1-c1nc(N)nc(Nc2ccc(OC(F)F)cc2)n1 [Cpd 47, N-[4-(difluoromethoxy)phenyl]-6-(4,6-difluoro-2-methyl-1H-benzimidazol-1-yl)-1,3,5-triazine-2,4-diamine]
10 to 100 nM	Cc1nc2c(F)cc(F)cc2n1-c1nc(N)nc(Nc2ccc(OC(F)F)c(F)c2)n1 [Cpd 48, N-[4-(difluoromethoxy)-3-fluorophenyl]-6-(4,6-difluoro-2-methyl-1H-benzimidazol-1-yl)-1,3,5-triazine-2,4-diamine]
10 to 100 nM	CCc1nc2c(F)cc(F)cc2n1-c1nc(N)nc(Nc2ccc(OC(F)F)cc2)n1 [Cpd 49, N-[4-(difluoromethoxy)phenyl]-6-(2-ethyl-4,6-difluoro-1H-benzimidazol-1-yl)-1,3,5-triazine-2,4-diamine]
10 to 100 nM	CCc1nc2c(F)cc(F)cc2n1-c1nc(N)nc(Nc2ccc(OC(F)F)c(F)c2)n1 [Cpd 50, N-[4-(difluoromethoxy)-3-fluorophenyl]-6-(2-ethyl-4,6-difluoro-1H-benzimidazol-1-yl)-1,3,5-triazine-2,4-diamine]
10 to 100 nM	Cc1nc2ccccc2n1-c1nc(N)nc(Nc2ccc(C(F)(F)F)nc2)n1 [Cpd 51, 6-(2-methyl-1H-benzimidazol-1-yl)-N-[6-(trifluoromethyl)pyridin-3-yl]-1,3,5-triazine-2,4-diamine]
100 to 3000 nM	Cc1nc2cc(F)ccc2n1-c1nc(N)nc(Nc2ccc(C(F)(F)F)nc2)n1 [Cpd 52, 6-(5-fluoro-2-methyl-1H-benzimidazol-1-yl)-N-[6-(trifluoromethyl)pyridin-3-yl]-1,3,5-triazine-2,4-diamine]
10 to 100 nM	Cc1nc2ccc(F)cc2n1-c1nc(N)nc(Nc2ccc(C(F)(F)F)nc2)n1 [Cpd 53, 6-(6-fluoro-2-methyl-1H-benzimidazol-1-yl)-N-[6-(trifluoromethyl)pyridin-3-yl]-1,3,5-triazine-2,4-diamine]
100 to 3000 nM	Cc1nc2cc(F)ccc2n1-c1nc(N)nc(Nc2ccc(OC(F)F)c(F)c2)n1 [Cpd 54, N-[4-(difluoromethoxy)-3-fluorophenyl]-6-(5-fluoro-2-methyl-1H-benzimidazol-1-yl)-1,3,5-triazine-2,4-diamine]
10 to 100 nM	CCc1nc2ccc(F)cc2n1-c1nc(N)nc(Nc2ccc(C(F)(F)F)cc2)n1 [Cpd 55, 6-(2-ethyl-6-fluoro-1H-benzimidazol-1-yl)-N-[4-(trifluoromethyl)phenyl]-1,3,5-triazine-2,4-diamine]
10 to 100 nM	CCc1nc2ccc(F)cc2n1-c1nc(N)nc(Nc2ccc(OC(F)F)cc2)n1 [Cpd 56, N-[4-(difluoromethoxy)phenyl]-6-(2-ethyl-6-fluoro-1H-benzimidazol-1-yl)-1,3,5-triazine-2,4-diamine]
10 to 100 nM	CCc1nc2ccc(F)cc2n1-c1nc(N)nc(Nc2ccc(OC(F)F)c(F)c2)n1 [Cpd 57, N-[4-(difluoromethoxy)-3-fluorophenyl]-6-(2-ethyl-6-fluoro-1H-benzimidazol-1-yl)-1,3,5-triazine-2,4-diamine]
10 to 100 nM	CCc1nc2cc(F)ccc2n1-c1nc(N)nc(Nc2ccc(C(F)(F)F)cc2)n1 [Cpd 58, 6-(2-ethyl-5-fluoro-1H-benzimidazol-1-yl)-N-[4-(trifluoromethyl)phenyl]-1,3,5-triazine-2,4-diamine]
